# Source: article PMC2630426 (Journal of medicinal chemistry, 2008)
# Like-named read-outs stand apart in the source and are kept apart here.
# What was measured:
# μ opioid receptor [1] = conditions: cited from earlier work
# δ opioid receptor [2] = biological target: T1, δ opioid receptor (Rattus norvegicus, UniProt P33533); conditions: cited from earlier work
# μ opioid receptor [3] = conditions: cited from earlier work; for Ki: read-out: Ki^μ
# κ opioid receptor [4] = biological target: T2, κ opioid receptor (Cavia porcellus, UniProt P41144); test: GPI assay, κ opioid antagonist potency; format: biochemical, guinea pig
# μ opioid receptor [5] = biological target: T3, μ opioid receptor (Rattus norvegicus, UniProt P33535); test: rat brain membrane binding assay, μ opioid receptor; conditions: based on the receptor binding constants (Ki values)
# δ opioid receptor [6] = biological target: T4, δ opioid receptor (Mus musculus, UniProt P32300); test: MVD assay, δ opioid antagonist potency; format: biochemical
# κ opioid receptor [7] = biological target: T2, κ opioid receptor; conditions: read-out: Ki^κ, opioid receptor binding, cited from earlier work
# δ opioid receptor [8] = biological target: T1, δ opioid receptor; conditions: ref Schiller et al. 4, cited from earlier work
# μ opioid receptor [9] = biological target: T3, μ opioid receptor; conditions: cited from earlier work
# δ opioid receptor [10] = biological target: T1, δ opioid receptor; conditions: read-out: Ki^δ; cited from earlier work
# δ opioid receptor [11] = biological target: T4, δ opioid receptor; conditions: cited from earlier work; for Ke^δ: MVD, DPDPE as δ agonist
# μ opioid receptor [12] = conditions: GPI, TAPP as μ agonist, cited from earlier work
# κ opioid receptor [13] = biological target: T2, κ opioid receptor; conditions: GPI, U50,488 as κ agonist, cited from earlier work
# [14] = endomorphin-derived μ antagonists
# T1 sequence (P33533 whole entry): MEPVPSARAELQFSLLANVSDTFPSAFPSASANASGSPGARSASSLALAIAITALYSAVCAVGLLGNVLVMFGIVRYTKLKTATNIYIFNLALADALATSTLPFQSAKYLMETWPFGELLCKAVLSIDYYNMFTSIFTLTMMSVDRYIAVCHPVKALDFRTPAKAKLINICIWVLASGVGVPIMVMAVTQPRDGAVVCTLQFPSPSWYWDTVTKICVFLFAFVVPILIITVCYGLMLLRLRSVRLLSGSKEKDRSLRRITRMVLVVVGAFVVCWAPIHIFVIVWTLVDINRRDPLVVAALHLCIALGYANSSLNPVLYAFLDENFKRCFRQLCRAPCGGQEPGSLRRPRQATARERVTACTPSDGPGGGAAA
# T2 sequence (P41144 whole entry): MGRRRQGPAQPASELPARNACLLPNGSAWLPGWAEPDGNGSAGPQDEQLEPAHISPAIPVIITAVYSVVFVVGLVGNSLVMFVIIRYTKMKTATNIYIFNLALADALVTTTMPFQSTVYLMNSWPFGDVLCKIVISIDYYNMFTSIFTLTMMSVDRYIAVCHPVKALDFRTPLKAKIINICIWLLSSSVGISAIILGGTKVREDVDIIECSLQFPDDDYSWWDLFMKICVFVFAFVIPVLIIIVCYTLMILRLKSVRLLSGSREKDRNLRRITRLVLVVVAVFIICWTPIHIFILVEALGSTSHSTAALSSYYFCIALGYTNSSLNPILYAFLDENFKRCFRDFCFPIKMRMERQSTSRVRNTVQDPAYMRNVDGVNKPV
# T4 sequence (P32300 whole entry): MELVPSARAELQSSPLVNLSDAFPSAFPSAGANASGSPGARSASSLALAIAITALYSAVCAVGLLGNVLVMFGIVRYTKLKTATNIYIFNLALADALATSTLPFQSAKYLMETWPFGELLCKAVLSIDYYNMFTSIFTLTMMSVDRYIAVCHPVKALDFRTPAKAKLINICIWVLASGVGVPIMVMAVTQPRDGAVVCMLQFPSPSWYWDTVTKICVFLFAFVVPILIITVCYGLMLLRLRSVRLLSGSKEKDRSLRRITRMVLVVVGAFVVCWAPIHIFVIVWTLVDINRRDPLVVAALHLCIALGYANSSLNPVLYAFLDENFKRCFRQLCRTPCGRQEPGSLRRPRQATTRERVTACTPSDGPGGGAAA
# T3 sequence (P33535 whole entry): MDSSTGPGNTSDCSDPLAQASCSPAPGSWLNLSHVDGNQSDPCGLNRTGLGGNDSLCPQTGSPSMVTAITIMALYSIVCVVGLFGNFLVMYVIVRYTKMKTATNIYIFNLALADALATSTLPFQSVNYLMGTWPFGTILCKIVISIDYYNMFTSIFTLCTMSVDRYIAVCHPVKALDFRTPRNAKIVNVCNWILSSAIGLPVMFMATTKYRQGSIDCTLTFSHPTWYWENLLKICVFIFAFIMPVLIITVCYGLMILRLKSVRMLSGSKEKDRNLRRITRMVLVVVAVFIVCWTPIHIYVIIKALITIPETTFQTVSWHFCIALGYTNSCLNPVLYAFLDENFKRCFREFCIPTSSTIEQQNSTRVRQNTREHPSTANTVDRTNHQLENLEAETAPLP
compound,measurement,setting,value
H-Dmt-Sar-Phe-D-Nal-NH2,Ke^μ,μ opioid receptor [1],2.34 nM
same,Ke^δ,δ opioid receptor [2],305 nM
"[Dmt^1,D-2-Nal^4]endomorphin-2 [antanal-2]",Ki,μ opioid receptor [3]; [14],0.00152 µM
"CC[C@H](C)[C@H](NC(=O)[C@H](CCCNC(=N)N)NC(=O)[C@H](CCCNC(=N)N)NC(=O)[C@H](CC(C)C)NC(=O)[C@H](Cc1ccccc1)NC(=O)CNC(=O)CNC(=O)[C@@H](C)Cc1c(C)cc(C(N)=O)cc1C)C(=O)N[C@@H](CCCNC(=N)N)C(=O)N1CCC[C@H]1C(=O)N[C@@H](CCCCN)C(N)=O [compound 5, [(2S)-Mdcp^1]Dyn A(1-11)-NH2]",Kb,κ opioid receptor [4],0.00596 ± 0.0008 µM
same,Ki ratio μ/δ/κ,μ opioid receptor [5],1/1/1
same,Kb,δ opioid receptor [6],0.843 ± 0.088 µM
"[Dmt^1,D-2-Nal^4]endomorphin-1 [antanal-1]",Ki,μ opioid receptor [3]; [14],0.00238 µM
H-D-Phe-c[Cys-Tyr-D-Trp-Orn-Thr-Pen]-Thr-NH2 [CTOP],IC50,"μ opioid receptor [3]; read-out: IC50^μ, somatostatin-derived μ opioid antagonist",0.0028 µM
(2S)-Mdp-c[D-Pen-Gly-Phe(pF)-Pen]-Phe-OH (disulfide) (YCGFCF) [compound 4],Ki,κ opioid receptor [7]; ref Schiller et al. 4,3.71 ± 0.4 µM
same,Ki,"δ opioid receptor [8]; read-out: Ki^δ, opioid receptor binding",0.00232 ± 0.0004 µM
same,Ki,"μ opioid receptor [9]; read-out: Ki^μ, opioid receptor binding, ref Schiller et al. 4",0.406 ± 0.021 µM
"Dhp-c[N^ε,N^β-carbonyl-D-Lys^2,Dap^5]enkephalinamide",Ki,δ opioid receptor [10],0.273 µM
same,Ki,μ opioid receptor [3],0.0155 µM
(2S)-Mdp-c[D-Pen-Gly-Phe(pF)-Pen]-Phe-OH (disulfide) [compound 4],Ki ratio δ/μ/κ,δ opioid receptor [8]; based on Ki values,1/175/1600
same,Ke^δ,δ opioid receptor [11]; ref Schiller et al. 4,0.785 ± 0.135 nM
same,Ke ratio δ/μ/κ,"δ opioid receptor [11]; from Ke values of GPI and MVD assays, ref Schiller et al. 4",1/851/5570
same,Ke^μ,μ opioid receptor [12]; ref Schiller et al. 4,668 ± 40 nM
same,Ke^κ,κ opioid receptor [13]; ref Schiller et al. 4,4370 ± 860 nM
(2S)-Mdp-c[D-Cys-Gly-Phe(pNO2)-D-Cys]NH2 (disulfide) [compound 2],Ki,κ opioid receptor [7]; ref Schiller et al. 2,0.0928 ± 0.0053 µM
same,Ke^δ,δ opioid receptor [11]; ref Schiller et al. 2,3.48 ± 0.28 nM
same,Ki ratio μ/δ/κ,"μ opioid receptor [9]; based on Ki values, ref Schiller et al. 2",1/2/42
same,Ke^μ,μ opioid receptor [12]; ref Schiller et al. 2,1.48 ± 0.18 nM
same,Ke^κ,κ opioid receptor [13]; ref Schiller et al. 2,6.41 ± 0.18 nM
[(2S)-Mdp^1]Dyn A(1-11)-NH2 [compound 6],Ke^δ,δ opioid receptor [11]; ref Lu et al. 3,3320 ± 520 nM
same,Ke^μ,μ opioid receptor [12]; ref Lu et al. 3,925 ± 94 nM
same,Ke^κ,κ opioid receptor [13]; ref Lu et al. 3,3.92 ± 0.65 nM
